Experimental data as given in patent US20200038412A1, “METHODS OF TREATING ALZHEIMER'S DISEASE USING AMINOSTEROL COMPOSITIONS” (Enterin, Inc., priority 2018, published 2020).
Structures can show the parent of a compound that is named as a salt.

Columns and labels:
[1] = single and repeat intravenous administration, alone or in combination with other agents; cited from earlier work
[2] = test system: patients with PD and constipation; test: Phase 2 trial Stage 2: bowel function under daily oral dosing (escalation, fixed dose, wash-out); type: in vivo, human; settings: patients with baseline ≥1 CSBM/week
Experimental: Following successful screening, all subjects underwent a 14-day run-in period where the degree of constipation was assessed through a validated daily log (Zinsmeister et al. 2013) establishing baseline CSBMs/week. Subjects with an average of <3 CSBMs/week proceeded to dosing.
In Stage 2, 34 patients were evaluated.
The primary efficacy outcome variable was whether or not a subject was a “success” or “failure”. This is an endpoint based on subject diary entries for the “fixed dose” period prior to the endpoint assessment defined as average complete stool frequency increase by 1 or more over baseline, or 3 or more complete spontaneous stools/week. The subject was deemed a “success” if s/he met one or more of the criteria listed above, otherwise the subject was deemed a “failure”. The primary analysis was based on all subjects with a baseline assessment and an assessment at the end of the “fixed-dose” period and was a comparison of the proportion of successes with 0.10 (the null hypothesis corresponding to no treatment effect).

[3] = Pharmacokinetics of orally administered squalamine (ENT-01) in Stage 1; type: in vivo, human; settings: oral dosing
Experimental: PK data were collected on the 10 patients enrolled in Stage 1 and 10 patients enrolled in Stage 2 to determine the extent of systemic absorption. In Stage 1, PK data were obtained at each visit, pre-medication, at 1, 2, 4, 8 and 24 hours (Table 10). In Stage 2, PK was measured on days 1 and 6 of the randomization period pre-medication, at 1, 2, 4 and 8 hours (Table 11).
The mean Cmax, Tmax and T1/2 and AUC of the squalamine ion following squalamine (ENT-01) oral dosing for Stage 1 patients. The PK analyses are only approximate, as the lower limit of the validated concentration range was 10 ng/ml; most of the measured concentrations fell below that value. The mean Cmax, Tmax and T1/2 and AUC of the squalamine ion following squalamine (ENT-01) oral dosing for Stage 2 patients. The PK analyses are only approximate, as the lower limit of the validated concentration range was 0.5 ng/ml.

[4] = test system: mouse models of PD; settings: cited from earlier work
[5] = test system: IPANs (intrinsic primary afferent neuron); settings: perfusion through lumen of isolated bowel segment; cited from earlier work
[6] = test system: C. elegans model of PD; settings: C. elegans model; cited from earlier work
[7] = systemic administration, mice; into the duodenum through the biliary tract; cited from earlier work

SMILES	well tolerated intravenous dose [1]	mean dose required for a bowel response (prokinetic dose) [2] [mg]	systemic absorption [3]	gastro-intestinal motility ([4]; orally administered, mice with constipation due to overexpression of human αS (West et al))	gastrointestinal dysmotility ([4]; several mouse models of PD)	effect on IPANs [5]	muscle paralysis [6]	clearance and excretion [7]
CC(C)[C@@H](CC[C@@H](C)[C@H]1CC[C@H]2[C@@H]3[C@H](O)C[C@H]4C[C@@H](NCCCNCCCCN)CC[C@]4(C)[C@H]3CC[C@]12C)OS(=O)(=O)O [squalamine dilactate salt]	at least 300 mg/m^2	–	–	–	–	–	–	–
CC(C)[C@@H](CC[C@@H](C)[C@H]1CC[C@H]2[C@@H]3[C@H](O)C[C@H]4C[C@@H](NCCCNCCCCN)CC[C@]4(C)[C@H]3CC[C@]12C)OS(=O)(=O)O [squalamine]	–	120	not significantly absorbed into the systemic circulation	stimulates gastro-intestinal motility	reverse gastrointestinal dysmotility	excitation of IPANs	complete reversal of muscle paralysis	cleared by the liver and excreted as the intact molecule
